The record followed here is US9115143B2, “Substituted indole derivatives as gamma secretase modulators” (Janssen Pharmaceuticals, Inc., priority 2011, dated 2015).

pIC50: −log10 of the molar value.

In data set [1] the test system is Aβ42. Nature of the data set: Screening for γ-secretase-modulating activity: Aβ42 in supernatant of SKNBE2 cells carrying hAPP 695 wild type (Alphalisa). Particulars: overnight incubation, Alphalisa on supernatant. Format: cell-based, human. The method, boiled down:
(§1)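 Secreted Aβ42 (C-terminal/N-terminal antibody pair) and Aβtotal (N-terminal/mid-region pair) were quantified by AlphaLISA after overnight compound exposure of wild-type hAPP 695 SKNBE2 cells at 37 °C. Values expressed relative to compound-free maximum, with IC50 from nonlinear 4-parameter regression.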
A general note: In Alpha technology, singlet oxygen from a donor bead excites a nearby acceptor bead.

For data set [2], the system named is Aβ38. The data set can be described thus: In vivo efficacy B-2a: brain soluble Aβ38 in non-transgenic rodents, ELISA. Also on record: species or system mouse. Conditions: dose 30 mg/kg oral dosing, brain soluble fraction, untreated animals (Ctrl) set at 100; for response vs control in vivo at 30 mg/kg: Mus musculus, po, read-out: Aβ38 (% vs Ctrl)_Mean. The text has this: Aβ38 increasing agents can be administered in any standard form using any standard method. For example, but not limited to, Aβ38 increasing agents can be in the form of liquid, tablets or capsules that are taken orally or by injection.
To determine whether acute administration of an Aβ38 increasing agents would increase Aβ38 levels in vivo, non-transgenic rodents, e.g. mice or rats were used. Animals treated with the Aβ38 increasing agents were examined and compared to those untreated or treated with vehicle and brain levels of soluble Aβ38 and total Aβ were quantitated by standard techniques, for example, using ELISA. Treatment periods varied from hours (h) to days and were adjusted based on the results of the Aβ38 increase once a time course of onset of effect could be established.
A typical protocol for measuring Aβ38 increase in vivo is shown but it is only one of many variations that could be used to optimize the levels of detectable Aβ. For example, Aβ38 increasing agents were formulated in 20% of Captisol® (a sulfobutyl ether of β-cyclodextrin) in water or 20% hydroxypropyl β cyclodextrin. The Aβ38 increasing agents were administered as a single oral dose or by any acceptable route of administration to overnight fasted animals. After 4 h, the animals were sacrificed and Aβ38 levels were analysed.
Blood was collected by decapitation and exsanguinations in EDTA-treated collection tubes. Blood was centrifuged at 1900 g for 10 minutes (min) at 4° C. and the plasma recovered and flash frozen for later analysis. The brain was removed from the cranium and hindbrain. The cerebellum was removed and the left and right hemisphere were separated. The left hemisphere was stored at −18° C. for quantitative analysis of test compound levels. The right hemisphere was rinsed with phosphate-buffered saline (PBS) buffer and immediately frozen on dry ice and stored at −80° C. until homogenization for biochemical assays.
Mouse brains from non-transgenic animals were resuspended in 8 volumes of 0.4% DEA (diethylamine)/50 mM NaCl containing protease inhibitors (Roche-11873580001 or 04693159001) per gram of tissue, e.g. for 0.158 g brain, add 1.264 mL of 0.4% DEA. All samples were homogenized in the FastPrep-24 system (MP Biomedicals) using lysing matrix D (MPBio #6913-100) at 6 m/s for 20 seconds. Homogenates were centrifuged at 20800×g for 5 min and supernatants collected. Supernatants were centrifuged at 221.300×g for 50 min. The resulting high speed supernatants were then transferred to fresh eppendorf tubes. Nine parts of supernatant were neutralized with 1 part 0.5 M Tris-HCl pH 6.8 and used to quantify Aβtotal and Aβ38.
To quantify the amount of Aβtotal and Aβ38 in the soluble fraction of the brain homogenates, Enzyme-Linked-Immunosorbent-Assays were used. Briefly, the standards (a dilution of synthetic Aβ1-40 and Aβ1-38, ANASPEC) were prepared in 1.5 mL Eppendorf tube in Ultraculture, with final concentrations ranging from 10000 to 0.3 pg/mL. The samples and standards were co-incubated with HRPO-labelled N-terminal antibody for Aβ38 detection and with the biotinylated mid-domain antibody 4G8 for Aβtotal detection. 50 μl of conjugate/sample or conjugate/standards mixtures were then added to the antibody-coated plate (the capture antibodies selectively recognize the C-terminal end of Aβ38, antibody J&JPRD/Aβ38/5, for Aβ38 detection and the N-terminus of Aβ, antibody JRF/rAβ/2, for Aβtotal detection). The plate was allowed to incubate overnight at 4° C. in order to allow formation of the antibody-amyloid complex. Following this incubation and subsequent wash steps the ELISA for Aβ38 quantification was finished by addition of Quanta Blu fluorogenic peroxidase substrate according to the manufacturer's instructions (Pierce Corp., Rockford, Ill.). A reading was performed after 10 to 15 min (excitation 320 nm/emission 420 nm). […]
In general terms: An ELISA detects its analyte on a solid surface through an enzyme-linked reagent.

Data set [3] deals with Aβtotal. Nature of the data set: Screening for γ-secretase-modulating activity: Aβtotal in supernatant of SKNBE2 cells carrying hAPP 695 wild type (Alphalisa). It counts as cell-based, human. Particulars: Homo sapiens, SKNBE2, SKNBE2 human neuroblastoma cells carrying hAPP 695 wild type; overnight incubation; Alphalisa on supernatant. The essentials: as §1
[4] abbreviates: Homo sapiens, SKNBE2, SKNBE2 human neuroblastoma cells carrying hAPP 695 wild type.

In general, pIC50 refers to −log10 of the IC50, conventionally taken in molar units. As a reminder, the melting point is the temperature, or range, at which the solid turns liquid. Regarding `Cc1cc(-c2ccc3[nH]c(-c4nc5n(n4)CCCC5c4ccccc4C)cc3n2)ccn1` (stereo not drawn) [Compound 6, 5,6,7,8-tetrahydro-8-(2-methylphenyl)-2-[5-(2-methyl-4-pyridinyl)-1H-pyrrolo[3,2-b]pyridin-2-yl]-[1,2,4]triazolo[1,5-a]pyridine], the melting point was determined as 266.5 °C. Further, the pIC50 in data set [1] (setting [4]) was 7.33. Also, the response vs control in vivo at 30 mg/kg in data set [2] is 78%. This molecule showed a negative logarithm of the IC50 (pIC50) in data set [3] of less than 5.00.
The molecule `N#Cc1ccc2[nH]c(-c3nc4n(n3)CCCC4c3ccccc3C(F)(F)F)cc2c1` (stereo not drawn) [Compound 18, 2-[5,6,7,8-tetrahydro-8-[2-(trifluoromethyl)phenyl][1,2,4]triazolo[1,5-a]pyridin-2-yl]-1H-indole-5-carbonitrile] came in with a melting point of 229 °C. In data set [1] (setting [4]), the negative logarithm of the IC50 (pIC50) was 6.93. Further, the response vs control in vivo at 30 mg/kg in data set [2] was 87%. The same molecule showed a pIC50 in data set [3] of less than 5.00.
In turn, `Cc1cc(F)ccc1C1CCCn2nc(-c3cc4cc(C#N)ccc4[nH]3)nc21` (stereo not drawn) [Compound 9, 2-[8-(4-fluoro-2-methylphenyl)-5,6,7,8-tetrahydro[1,2,4]triazolo[1,5-a]pyridin-2-yl]-1H-indole-5-carbonitrile] yielded a melting point of 244.9 °C. The molecule further showed a pIC50 in data set [1] (SKNBE2 human neuroblastoma cells carrying hAPP 695 wild type) of 6.86. Further, in data set [2] (30 mg/kg), the “Aβ38 (% vs Ctrl)_Mean” value is given as 87 % vs Ctrl. In data set [3], this molecule gave a pIC50 of less than 5.00.
